Experiments:
[1] = system: red blood cells (RBCs); assay: Hemolysis assay; assay type: cell-based, human; conditions: 0.1% SDS + distilled water; 4 h room temperature; absorbance 450 nm
Experimental: The hemolysis test was performed as standard protocol. A 1.5 mL heparin blood sample was obtained from a healthy volunteer in our laboratory. The red blood cells (RBCs) were collected by centrifugation of blood samples at 3000 rpm for 15 min and then were washed three times with PBS. The RBC pellet was resuspended in a 10 mL phosphate-buffer solution (PBS). A 100 µL/well of different concentrations of peptides were added into a 96-well plate (2000 µg/mL, 1000 µg/mL, 500 µg/mL, 250 µg/mL, 125 µg/mL, 62.5 µg/mL, 31.25 µg/mL, 15.62 µg/mL, 7.8 µg/mL). For positive hemolysis control 100 µL/well of 0.1% sodium dodecyl sulfate and distilled water, and for negative hemolysis control 100 µL/well of PBS were added into the appropriated wells. After that, 100 µL RBC suspension was added into all the wells. The plate was incubated at room temperature for 4 h. Then the 100 µL supernatant of each well was carefully transferred to a new 96-well plate. The solution absorbance was investigated by a UV–Vis instrument at 450 nm.

[2] = Hydroxyl radical scavenging activity assay; assay type: biochemical; conditions: positive control, 0.5 mM solution; UV-Vis 510 nm
Text: Hydroxyl radical is one of the strong reactive oxygen species in biological systems that react with the unsaturated fatty acid of phospholipids of the cell membrane and cause cell damage[36]–[38]. To assess the efficacy of peptides in countering hydroxyl radicals, we subjected them to a hydroxyl radical-scavenging activity assay, indicating their scavenging potential across a range of concentrations. The method for preparing the test samples, reagents, and control samples for the hydroxyl scavenging activity assay is as follows: initially, peptide samples at 10 mg/mL concentration were dissolved in ethanol, and subsequently, diluted concentrations of 2, 4, 6, and 8 mg/L were obtained from this solution. The assay reagent includes 6 mM hydrogen peroxide and 6 mM ferrous sulfate in ethanol. A solution of ascorbic acid with 0.5 mM concentration has been prepared as a positive control and a solution without the peptide sample is considered as negative control. […] After 30 min, the UV–Vis absorbance was determined at 510 nm. The determination of hydroxyl radical scavenging activity for the peptide samples was executed as follows:2 Hydroxyl radical scavenging activity%=A0-A1/A0×100, where A0 is the absorbance of the negative control (solution without the peptide sample) and A1 is the absorbance of the peptide samples.

[3] = DPPH scavenging activity assay; assay type: biochemical; conditions: compared among six synthesized peptides and with ascorbic acid 0.5 mM
Experimental: A straightforward and expeditious approach for quantifying the antioxidant activity of antioxidants involves employing the 2,2-diphenyl-1-picrylhydrazyl (DPPH) assay, a spectrophotometric technique[36]–[38]. Preparation of the test sample, reagent, and control sample in the DPPH assay is as follows: peptide samples with a concentration of 10 mg/mL were prepared in ethanol and then were diluted in 2, 4, 6, and 8 mg/L concentrations. The DPPH solution is prepared with a concentration of 0.02% (w/v) in methanol. A solution of 0.5 mM ascorbic acid has been prepared as a positive control, and methanol is considered as the negative control sample. The peptide sample (250 μL) with DPPH solution (250 μL) in ethanol (1.0 mL) was mixed and stirred in the dark for 30 min at room temperature. The solutions were analyzed using a UV–Vis instrument (Varian, Cary 100) at 517 nm. The calculation of antioxidant activity percentage is reported as the following equation:1 DPPH scavenging activity%=A0-A1/A0×100.
In Eq. (1), A0 is the absorbance of the negative control (methanol) and A1 is the optical absorbance of the peptide samples.

Row | Compound | DPPH free radical scavenging activity, in words [3] | other results
1 | CCCCCCCCCCCCOS(=O)(=O)[O-].[Na+] [SDS, sodium dodecyl sulfate] | – | Hemolysis, OD value of positive control [1]: 2.21
2 | O=C1O[C@H]([C@@H](O)CO)C(O)=C1O [ascorbic acid] | – | Hydroxyl radical scavenging activity [2]: 93.9%
3 | LHHWY [GP12, ML-generated antioxidant peptide LHHWY, synthesized] | highest free radical scavenging activity | –
4 | YWHW [GP9, ML-generated antioxidant peptide YWHW, synthesized] | highest free radical scavenging activity | –
5 | YWYHF [GP10, ML-generated antioxidant peptide YWYHF, synthesized] | highest free radical scavenging activity | –

From PMC10948870, “De novo antioxidant peptide design via machine learning and DFT studies” (Scientific Reports, 2024)
